Assay results taken from patent US11999727B2 (Tango Therapeutics, Inc., priority 2020, dated 2024).

Key:
PRMT5 [1] = target: T1, PRMT5 (Homo sapiens, UniProt O14744); assay: PRMT5 biochemical IC50 assay with SAM as cofactor; conditions: PRMT5, SAM as cofactor; read-out: SAM IC50
T1 construct: purchased Viva (custom protein)

PRMT5 [2] = target: T1, PRMT5; assay: PRMT5 biochemical IC50 assay with no cofactor; conditions: PRMT5, no cofactor
Text: Table 1 indicates IC50 values (μM) against PRMT5 for exemplary compounds in the presence of SAM as cofactor, with no cofactor, and with MTA as cofactor, respectively (columns 4-6). […] Ki values can be calculated from the IC50 values as described in the Examples section. As detailed in the Examples section, for the assay performed in the presence of SAM, IC50=Ki×1.5 (Ki=IC50/1.5).

PRMT5 [3] = target: T1, PRMT5; assay: PRMT5 biochemical IC50 assay with MTA as cofactor; conditions: PRMT5, MTA as cofactor; read-out: MTA IC50
[4] = system: HAP1 MTAP-intact cell line; assay: SDMA in-cell western assay, HAP1 MTAP-intact; format: cell-based; conditions: Homo sapiens, HAP1, SDMA in-cell western, HAP1 MTAP-intact; read-out: MTAP HAP1 intact IC50
Outline: (§1)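 Compounds were tested in HAP1 cells differing only in MTAP status (endogenous expression versus null). Cellular SDMA levels were then measured by in-cell western, giving an IC50 in each background.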

[5] = system: HAP1 MTAP-deleted cell line; assay: SDMA in-cell western assay, HAP1 MTAP-deleted; format: cell-based; conditions: for IC50: Homo sapiens, HAP1, SDMA in-cell western, HAP1 MTAP-deleted; for MTAP intact/deleted ratio: SDMA in-cell western
Outline: as §1

[6] = system: HAP1 MTAP-deleted cell line; assay: Viability assay, MTAP-deleted cell line; format: cell-based; conditions: Homo sapiens, read-out: HAP1 MTAP deleted viability
Text: Table 1 additionally indicates IC50 values in a viability assay for the MTAP-deleted cell line (column 10), indicating the effect of treatment with compound on cell survival.

[7] = read-out: No Cofactor/ rel IC50
[8] = read-out: HAP 1 MTAP deleted IC50
[9] = IC50 ratio HAP1 MTAP-intact / HAP1 MTAP-deleted
[10] = HAP1, viability, HAP1 MTAP-deleted cell line
[11] = read-out: HAP1 MTAP deleted IC50
[12] = HAP1, viability assay, MTAP-deleted cell line
[13] = HAP1, viability IC50, MTAP-deleted cell line
[14] = HAP1, viability assay, HAP1 MTAP-deleted
[15] = IC50 ratio HAP1 MTAP-intact vs HAP1 MTAP-deleted

T1 sequence (O14744 whole entry): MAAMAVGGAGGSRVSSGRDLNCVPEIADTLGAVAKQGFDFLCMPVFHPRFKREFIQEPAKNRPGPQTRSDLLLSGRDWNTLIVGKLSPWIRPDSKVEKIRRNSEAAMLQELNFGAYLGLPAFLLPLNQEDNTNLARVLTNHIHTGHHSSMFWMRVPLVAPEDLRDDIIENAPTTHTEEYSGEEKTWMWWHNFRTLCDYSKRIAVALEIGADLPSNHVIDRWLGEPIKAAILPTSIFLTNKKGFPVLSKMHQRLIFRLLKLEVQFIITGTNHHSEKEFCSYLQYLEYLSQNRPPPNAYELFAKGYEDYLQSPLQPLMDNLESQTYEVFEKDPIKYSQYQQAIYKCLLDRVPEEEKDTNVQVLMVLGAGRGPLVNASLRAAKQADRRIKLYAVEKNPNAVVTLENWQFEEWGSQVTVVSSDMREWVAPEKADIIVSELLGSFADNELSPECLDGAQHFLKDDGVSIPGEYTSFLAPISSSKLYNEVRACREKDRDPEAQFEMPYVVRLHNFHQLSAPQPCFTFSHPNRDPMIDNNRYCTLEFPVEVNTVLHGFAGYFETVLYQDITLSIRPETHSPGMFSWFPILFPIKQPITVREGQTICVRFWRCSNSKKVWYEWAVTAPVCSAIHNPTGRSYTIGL
T1 sequence (Q9BQA1 whole entry partner): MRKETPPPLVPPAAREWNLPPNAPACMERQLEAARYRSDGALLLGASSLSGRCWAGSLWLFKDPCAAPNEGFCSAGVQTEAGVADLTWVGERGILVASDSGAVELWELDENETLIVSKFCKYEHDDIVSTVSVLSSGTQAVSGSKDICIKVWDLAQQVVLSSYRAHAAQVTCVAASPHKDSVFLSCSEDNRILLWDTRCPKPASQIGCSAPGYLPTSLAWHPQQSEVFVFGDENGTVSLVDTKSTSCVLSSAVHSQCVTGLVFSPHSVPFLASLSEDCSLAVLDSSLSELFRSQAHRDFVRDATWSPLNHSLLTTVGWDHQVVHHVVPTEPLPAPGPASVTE

| IC50 (PRMT5 [1]) [nM] | IC50 (PRMT5 [2]; [7]) [nM] | IC50 (PRMT5 [3]) [nM] | IC50 [4] [nM] | IC50 [5, 8] [nM] | IC50 (PRMT5 [2]; read-out: No Cofactor/rel IC50) [nM] | IC50 [5, 11] [nM] | Compound | MTAP intact/deleted ratio [5, 9] | IC50 [6, 10] [nM] | IC50 [6, 12] [nM] | IC50 [6, 13] [nM] | IC50 [6, 14] [nM] | MTAP intact/deleted ratio [5, 15] |
| --- | --- | --- | --- | --- | --- | --- | --- | --- | --- | --- | --- | --- | --- |
| 50 to 500 | < 50 | < 50 | 100 to 1000 | < 100 |  |  | Cc1cc(NC(=O)C(=O)N2C[C@@H](C)CC[C@@H]2c2cc(F)c3[nH]ncc3c2)cnc1N (single isomer, unassigned) [Compound 1350] | A (an IC50 ratio greater than or equal to 10 fold) | < 1000 |  |  |  |  |
| 50 to 500 |  | < 50 | > 1000 |  | 50 to 500 | 100 to 1000 | NC(=O)c1cncc(NC(=O)C(=O)N2CCCCC2C2CCCC2)c1 (stereo not drawn) [Compound 240, 5-(2-(2-cyclopentylpiperidin-1-yl)-2-oxoacetamido)nicotinamide] | A (an IC50 ratio greater than or equal to 10 fold) |  | > 10000 |  |  |  |
| 50 to 500 |  | 50 to 500 | > 1000 | > 1000 | 50 to 500 |  | Cc1cc(NC(=O)C(=O)N2C[C@H](C)CC[C@H]2c2cccc(S(C)(=O)=O)c2)cnc1C (racemic) [Compound 648, N-(5,6-dimethyl-3-pyridyl)-2-[(2R,5S)-5-methyl-2-(3-methylsulfonylphenyl)-1-piperidyl]-2-oxo-acetamide] | B (an IC50 ratio greater than or equal to 3 fold but lower than 10 fold) |  |  | > 10000 |  |  |
| 50 to 500 |  | < 50 | > 1000 | < 100 | 50 to 500 |  | C[C@@H]1CC[C@@H](c2ccc(F)c(O)c2)N(C(=O)C(=O)Nc2cncc(C(N)=O)c2)C1 (racemic) [Compound 540, 5-[[2-[(2R,5S)-2-(4-fluoro-3-hydroxy-phenyl)-5-methyl-1-piperidyl]-2-oxo-acetyl]amino]pyridine-3-carboxamide] | A (an IC50 ratio greater than or equal to 10 fold) |  |  | < 1000 |  |  |
| 50 to 500 | 50 to 500 | 50 to 500 | > 1000 | 100 to 1000 |  |  | NC(=O)c1cncc(NC(=O)C(=O)N2CC3CCC(C3)C2c2ccccc2)c1 (racemic) [Compound 86, rac-5-[[2-oxo-2-[(1R,4R,5S)-4-phenyl-3-azabicyclo[3.2.1]octan-3-yl]acetyl]amino]pyridine-3-carboxamide] | A (an IC50 ratio greater than or equal to 10 fold) |  | > 10000 |  |  |  |
| 50 to 500 |  | < 50 | > 1000 |  | 50 to 500 | 100 to 1000 | C[C@H]1CC[C@H](c2ccc(C(F)(F)F)cc2)N(C(=O)C(=O)Nc2cncc(C(N)=O)c2)C1 (single isomer, unassigned) [Compound 511] | A (an IC50 ratio greater than or equal to 10 fold) |  | 1000 to 10000 |  |  |  |
| 50 to 500 |  | 50 to 500 | 100 to 1000 |  | 50 to 500 | < 100 | Cc1cc(NC(=O)C(=O)N2C[C@H](C)CC[C@H]2c2ccc3sc(C(F)(F)F)nc3c2)cnc1N (racemic) [Compound 861, rac-N-(6-Amino-5-methyl-3-pyridyl)-2-[(2R,5S)-5-methyl-2-[2-(trifluoromethyl)-1,3-benzothiazol-5-yl]-1-piperidyl]-2-oxo-acetamide] | A (an IC50 ratio greater than or equal to 10 fold) |  |  |  | < 1000 |  |
| 50 to 500 | < 50 | < 50 | < 100 | < 100 |  |  | CCc1cc(NC(=O)C(=O)N2C[C@@H](C)CC[C@@H]2c2ccc3sc([C@H]4CN(C)C(=O)CN4C)nc3c2)cnc1N [Compound 1385] | A (an IC50 ratio greater than or equal to 10 fold) | < 1000 |  |  |  |  |
| 50 to 500 |  | < 50 | 100 to 1000 |  | < 50 | < 100 | Cc1cc(NC(=O)C(=O)N2C[C@@H](C)CC[C@@H]2c2ccc(CO)cc2)cnc1N (single isomer, unassigned) [Compound 806] | A (an IC50 ratio greater than or equal to 10 fold) |  |  |  | < 1000 |  |
| < 50 |  | < 50 | 100 to 1000 |  | < 50 | < 100 | COc1ncc(NC(=O)C(=O)N2C[C@@H](C)CC[C@@H]2c2ccc3nn(C4CCN(C)CC4)cc3c2)cc1C(N)=O (racemic) [Compound 1115, 2-Methoxy-5-[[2-oxo-2-[rac-(2R,5S)-5-methyl-2-[2-(1-methyl-4-piperidyl)indazol-5-yl]-1-piperidyl]acetyl]amino]pyridine-3-carboxamide] |  |  | < 1000 |  |  | A (an IC50 ratio greater than or equal to 10 fold) |
| 50 to 500 |  | 50 to 500 | > 1000 |  | > 500 | > 1000 | Cc1cc(NC(=O)C(=O)N2CCCC[C@@H]2c2cccc(N(C)C)c2)cnc1N (single isomer, unassigned) [Compound 390] | B (an IC50 ratio greater than or equal to 3 fold but lower than 10 fold) |  | > 10000 |  |  |  |
| 50 to 500 |  | < 50 | > 1000 | < 100 | 50 to 500 |  | COc1ncc(NC(=O)C(=O)N2C[C@@H](C)CC[C@@H]2c2cc3[nH]ncc3s2)cc1C(N)=O (single isomer, unassigned) [Compound 1006, 2-methoxy-5-(2-(5-methyl-2-(1H-thieno[3,2-c]pyrazol-5-yl)piperidin-1-yl)-2-oxoacetamido)nicotinamide] | A (an IC50 ratio greater than or equal to 10 fold) |  | < 1000 |  |  |  |
| > 500 |  | > 500 | > 1000 | > 1000 | > 500 |  | Cc1cc([C@H]2CC[C@H](C)CN2C(=O)C(=O)Nc2cnc(N)c(C)c2)ccn1 (single isomer, unassigned) [Compound 593] | B (an IC50 ratio greater than or equal to 3 fold but lower than 10 fold) |  |  | > 10000 |  |  |
| < 50 |  | < 50 | 100 to 1000 |  | < 50 | < 100 | CCN1CCC(c2nc3cc([C@H]4CC[C@H](C)CN4C(=O)C(=O)Nc4cnc(OC)c(C(N)=O)c4)ccc3s2)CC1 [Compound 1164, 5-(2-((2R,5)-2-(2-(1-ethylpiperidin-4-yl)benzo[d]thiazol-5-yl)-5-methylpiperidin-1-yl)-2-oxoacetamido)-2-methoxynicotinamide] |  |  | < 1000 |  |  | A (an IC50 ratio greater than or equal to 10 fold) |
| 50 to 500 |  | < 50 | > 1000 |  | 50 to 500 | 100 to 1000 | C[C@@H]1CC[C@@H](c2ccc(Cl)c(Cl)c2)N(C(=O)C(=O)Nc2cncc(C(N)=O)c2)C1 (racemic) [Compound 243, rac-5-{2-[(2R,5S)-2-(3,4-Dichlorophenyl)-5-methylpiperidin-1-yl]-2-oxoacetamido}pyridine-3-carboxamide] | A (an IC50 ratio greater than or equal to 10 fold) |  | 1000 to 10000 |  |  |  |
| 50 to 500 |  | 50 to 500 | > 1000 | 100 to 1000 | 50 to 500 |  | Cc1cc(NC(=O)C(=O)N2C[C@H](C)CC[C@H]2c2cccc(S(C)(=O)=O)c2)cnc1N (racemic) [Compound 667, N-(6-amino-5-methyl-3-pyridyl)-2-[(2R,5S)-5-methyl-2-(3-methylsulfonylphenyl)-1-piperidyl]-2-oxo-acetamide] | A (an IC50 ratio greater than or equal to 10 fold) |  |  | 1000 to 10000 |  |  |
| > 500 | > 500 | > 500 | > 1000 | > 1000 |  |  | Cc1cc(NC(=O)C(=O)N2CCCC[C@H]2c2ccncc2)cnc1N (single isomer, unassigned) [Compound 47] | C (an IC50 ratio of less than 3 fold) |  | > 10000 |  |  |  |
| > 500 |  | > 500 | > 1000 |  | > 500 | > 1000 | Cc1cc(NC(=O)C(=O)N2C[C@@H](C)CC[C@@H]2c2cc(F)c(F)c(F)c2)cnc1N (single isomer, unassigned) [Compound 487] | C (an IC50 ratio of less than 3 fold) |  | > 10000 |  |  |  |
